Measured values: patent publication US8952024B2, “Herbicidal pyrimidone derivatives” (E I du Pont de Nemours and Company, priority 2009, dated 2015)

Columns and labels:
Type in all cases: in vivo
[1] = system: barnyardgrass (Echinochloa crus-galli); experiment: Test A pre-/postemergence plant response
Description: (§1) Seeds of barnyardgrass (Echinochloa crus-galli), large crabgrass (Digitaria sanguinalis), giant foxtail (Setaria faberii), morningglory (Ipomoea spp.), pigweed (Amaranthus retroflexus), velvetleaf (Abutilon theophrasti), wheat (Triticum aestivum) and corn (Zea mays) were planted into a blend of loam soil and sand and treated preemergence with a directed soil spray using test chemicals formulated in a non-phytotoxic solvent mixture which included a surfactant. At the same time these species were also treated with postemergence applications of test compounds formulated in the same manner.
(§2) Plants ranged in height from two to ten cm and were in the one- to two-leaf stage for the postemergence treatment. Treated plants and untreated controls were maintained in a greenhouse for approximately ten days, after which time all treated plants were compared to untreated controls and visually evaluated for injury. Plant response ratings, summarized in Table A, are based on a 0 to 100 scale where 0 is no effect and 100 is complete control. A dash (-) response means no test result.

[2] = system: corn (Zea mays); experiment: Test A pre-/postemergence plant response
Description: as §1, §2

[3] = system: giant foxtail (Setaria faberii); experiment: Test A pre-/postemergence plant response
Description: as §1, §2

[4] = system: large crabgrass (Digitaria sanguinalis); experiment: Test A pre-/postemergence plant response
Description: as §1, §2

[5] = system: morningglory (Ipomoea spp.); experiment: Test A pre-/postemergence plant response
Description: as §1, §2

[6] = system: pigweed (Amaranthus retroflexus); experiment: Test A pre-/postemergence plant response
Description: as §1, §2

[7] = system: velvetleaf (Abutilon theophrasti); experiment: Test A pre-/postemergence plant response
Description: as §1, §2

[8] = system: wheat (Triticum aestivum); experiment: Test A pre-/postemergence plant response
Description: as §1, §2

[9] = system: barnyardgrass (Echinochloa crus-galli); experiment: Test B flooded paddy test; settings: for Plant response rating, Barnyardgrass: Flood (flooded paddy test), 13 to 15 days
Description: (§3) Plant species in the flooded paddy test consisted of rice (Oryza sativa), umbrella sedge (Cyperus difformis), ducksalad (Heteranthera limosa) and barnyardgrass (Echinochloa crus-galli) grown to the 2-leaf stage for testing. At the time of treatment, test pots were flooded with water to 3 cm above the soil surface, treated by application of test compounds directly to the paddy water, and then maintained at that water depth for the duration of the test.
(§4) Treated plants and controls were maintained in a greenhouse for 13 to 15 days, after which time all treated plants were visually evaluated and compared to controls. Plant response ratings, summarized in Table B, are based on a scale of 0 to 100 where 0 is no effect and 100 is complete control. A dash (-) response means no test result.

[10] = system: ducksalad (Heteranthera limosa); experiment: Test B flooded paddy test; settings: for Plant response rating, Ducksalad: Flood (flooded paddy test), 13 to 15 days
Description: as §3, §4

[11] = system: rice (Oryza sativa); experiment: Test B flooded paddy test; settings: for Plant response rating, Rice: Flood (flooded paddy test), 13 to 15 days
Description: as §3, §4

[12] = system: umbrella sedge (Cyperus difformis); experiment: Test B flooded paddy test; settings: for Plant response rating, Sedge, Umbrella: Flood (flooded paddy test), 13 to 15 days
Description: as §3, §4

[13] = Postemergence, 125 g ai/ha, visual injury, 0 to 100 scale (0 no effect, 100 complete control), approx. ten days
[14] = Postemergence, 500 g ai/ha, 0 to 100 scale, 0 = no effect, 100 = complete control, approx. ten days
[15] = Preemergence, 125 g ai/ha, 0 to 100 scale, 0 = no effect, 100 = complete control
[16] = Preemergence, 500 g ai/ha, visual injury, 0 to 100 scale (0 no effect, 100 complete control), approx. ten days
[17] = 250 g ai/ha, flooded paddy test, visual rating on 0 to 100 scale (0 no effect, 100 complete control) after 13 to 15 days
[18] = 31 g ai/ha, scale of 0 to 100 where 0 is no effect and 100 is complete control
[19] = 62 g ai/ha, scale 0 to 100, 0 is no effect, 100 is complete control
[20] = 125 g ai/ha, scale 0 to 100, 0 is no effect, 100 is complete control
[21] = Postemergence, 125 g ai/ha, 0 to 100 scale where 0 is no effect and 100 is complete control
[22] = Postemergence, 500 g ai/ha, visual injury, 0 to 100 scale (0 no effect, 100 complete control), approx. ten days
[23] = Preemergence, 500 g ai/ha, 0 to 100 scale, 0 = no effect, 100 = complete control
[24] = Preemergence, 125 g ai/ha, 0 to 100 scale where 0 is no effect and 100 is complete control, approximately ten days

O=C1CCCC([O-])=C1C(=O)c1cnc(-c2ccccc2)n(-c2ccc(Cl)cc2)c1=O.[K+] [Compound 13]
20: Plant response rating, Corn [2, 16]
50: Plant response rating, Corn [2, 14] | Plant response rating, Foxtail, Giant [3, 15] | Plant response rating, Morningglory [5, 14]
60: Plant response rating, Crabgrass, Large [4, 15] | Plant response rating, Wheat [8, 14] | Plant response rating, Sedge, Umbrella [12, 20]
10: Plant response rating, Barnyardgrass [1, 15] | Wheat plant response rating [8, 13]
95: Plant response rating, Flood, Ducksalad [10, 17]
25: Plant response rating, Flood, Rice [11, 17]
30: Barnyardgrass plant response rating [1, 13] | Foxtail, Giant plant response rating [3, 13] | Crabgrass, Large plant response rating [4, 13]
0: Corn plant response rating [2, 13] | Plant response rating, Corn [2, 15] | Morningglory plant response rating [5, 13] | Plant response rating, Morningglory [5, 15] | Plant response rating, Morningglory [5, 16] | Plant response rating, Wheat [8, 15] | Plant response rating, Barnyardgrass [9, 18] | Plant response rating, Barnyardgrass [9, 19] | Plant response rating, Barnyardgrass [9, 20] | Plant response rating, Ducksalad [10, 18] | Plant response rating, Ducksalad [10, 19] | Plant response rating, Ducksalad [10, 20] | Plant response rating, Rice [11, 18] | Plant response rating, Rice [11, 19] | Plant response rating, Rice [11, 20] | Plant response rating, Sedge, Umbrella [12, 18] | Plant response rating, Sedge, Umbrella [12, 19]
35: Plant response rating, Flood, Barnyardgrass [9, 17]
100: Plant response rating, Crabgrass, Large [4, 16] | Plant response rating, Pigweed [6, 14] | Plant response rating, Pigweed [6, 16] | Velvetleaf plant response rating [7, 13] | Plant response rating, Velvetleaf [7, 14] | Plant response rating, Velvetleaf [7, 16]
90: Plant response rating, Barnyardgrass [1, 14] | Plant response rating, Barnyardgrass [1, 16] | Plant response rating, Foxtail, Giant [3, 16] | Plant response rating, Crabgrass, Large [4, 14]
85: Plant response rating, Flood, Sedge, Umbrella [12, 17]
40: Plant response rating, Pigweed [6, 15] | Plant response rating, Wheat [8, 16]
80: Plant response rating, Foxtail, Giant [3, 14] | Pigweed plant response rating [6, 13] | Plant response rating, Velvetleaf [7, 15]

CCCn1c(-c2ccc3c(c2)OCCO3)ncc(C(=O)C2=C(O)C3CCC(C3)C2=O)c1=O (stereo not drawn) [Compound 241]
10: Plant response rating, Barnyardgrass [1, 15] | Plant response rating, Foxtail, Giant [3, 15]
100: Plant response rating, Morningglory [5, 21] | Morningglory plant response rating [5, 22] | Plant response rating, Velvetleaf [7, 21] | Velvetleaf plant response rating [7, 22]
20: Plant response rating, Corn [2, 21] | Plant response rating, Corn [2, 23] | Plant response rating, Crabgrass, Large [4, 15] | Plant response rating, Pigweed [6, 15] | Plant response rating, Velvetleaf [7, 15]
80: Plant response rating, Foxtail, Giant [3, 21] | Pigweed plant response rating [6, 22]
60: Plant response rating, Velvetleaf [7, 23] | Wheat plant response rating [8, 22]
70: Plant response rating, Foxtail, Giant [3, 23] | Crabgrass, Large plant response rating [4, 22] | Plant response rating, Pigweed [6, 21]
0: Plant response rating, Corn [2, 15] | Plant response rating, Morningglory [5, 15] | Plant response rating, Wheat [8, 15]
50: Corn plant response rating [2, 22] | Plant response rating, Crabgrass, Large [4, 21] | Plant response rating, Pigweed [6, 23]
90: Plant response rating, Barnyardgrass [1, 21] | Barnyardgrass plant response rating [1, 22] | Plant response rating, Barnyardgrass [1, 23] | Foxtail, Giant plant response rating [3, 22] | Plant response rating, Crabgrass, Large [4, 23]
40: Plant response rating, Wheat [8, 21] | Plant response rating, Wheat [8, 23]
30: Plant response rating, Morningglory [5, 23]

CCCn1c(-c2ccc3ccccc3c2)ncc(C(=O)C2=C(O)C3CCC(C3)C2=O)c1=O (stereo not drawn) [Compound 242]
20: Corn plant response rating [2, 22] | Plant response rating, Crabgrass, Large [4, 21] | Plant response rating, Pigweed [6, 21]
10: Plant response rating, Crabgrass, Large [4, 23]
40: Plant response rating, Morningglory [5, 21]
100: Morningglory plant response rating [5, 22]
30: Pigweed plant response rating [6, 22] | Wheat plant response rating [8, 22]
0: Plant response rating, Barnyardgrass [1, 15] | Plant response rating, Barnyardgrass [1, 23] | Plant response rating, Corn [2, 21] | Plant response rating, Corn [2, 15] | Plant response rating, Corn [2, 23] | Plant response rating, Foxtail, Giant [3, 15] | Plant response rating, Foxtail, Giant [3, 23] | Plant response rating, Crabgrass, Large [4, 15] | Plant response rating, Morningglory [5, 15] | Plant response rating, Morningglory [5, 23] | Plant response rating, Pigweed [6, 15] | Plant response rating, Pigweed [6, 23] | Plant response rating, Velvetleaf [7, 15] | Plant response rating, Velvetleaf [7, 23] | Plant response rating, Wheat [8, 21] | Plant response rating, Wheat [8, 15] | Plant response rating, Wheat [8, 23]
50: Plant response rating, Barnyardgrass [1, 21] | Plant response rating, Foxtail, Giant [3, 21] | Plant response rating, Velvetleaf [7, 21]
60: Crabgrass, Large plant response rating [4, 22]
90: Barnyardgrass plant response rating [1, 22] | Velvetleaf plant response rating [7, 22]
80: Foxtail, Giant plant response rating [3, 22]

O=C(C1=C(O)C2CCC(C2)C1=O)c1cnc(-c2ccccc2)n(C2CCCCCCCCCCC2)c1=O (stereo not drawn) [Compound 247]
30: Plant response rating, Barnyardgrass [1, 21] | Corn plant response rating [2, 22] | Foxtail, Giant plant response rating [3, 22]
0: Plant response rating, Barnyardgrass [1, 24] | Plant response rating, Barnyardgrass [1, 23] | Plant response rating, Corn [2, 21] | Plant response rating, Corn [2, 24] | Plant response rating, Corn [2, 23] | Plant response rating, Foxtail, Giant [3, 13] | Plant response rating, Foxtail, Giant [3, 24] | Plant response rating, Foxtail, Giant [3, 23] | Plant response rating, Crabgrass, Large [4, 24] | Plant response rating, Crabgrass, Large [4, 23] | Plant response rating, Morningglory [5, 24] | Plant response rating, Morningglory [5, 23] | Plant response rating, Pigweed [6, 24] | Plant response rating, Pigweed [6, 23] | Plant response rating, Velvetleaf [7, 24] | Plant response rating, Velvetleaf [7, 23] | Plant response rating, Wheat [8, 13] | Wheat plant response rating [8, 22] | Plant response rating, Wheat [8, 24] | Plant response rating, Wheat [8, 23]
100: Plant response rating, Morningglory [5, 13] | Morningglory plant response rating [5, 22] | Plant response rating, Velvetleaf [7, 13] | Velvetleaf plant response rating [7, 22]
40: Plant response rating, Crabgrass, Large [4, 21]
80: Barnyardgrass plant response rating [1, 22]
70: Crabgrass, Large plant response rating [4, 22] | Plant response rating, Pigweed [6, 13]
90: Pigweed plant response rating [6, 22]
